Data taken from PMC7606179 (Acta Pharmaceutica Sinica. B, 2020).

What follows are compounds tested on NA immobilized magnetic beads (NA from C. perfringens).
Type: binding, Clostridium perfringens

| Structure (SMILES) | Behaviour in NA-MB ligand fishing of the artificial mixture |
| --- | --- |
| O=c1cc(-c2ccc(O)c(O)c2)oc2cc(O[C@@H]3O[C@H](CO)[C@@H](O)[C@H](O)[C@H]3O)cc(O)c12 [Galuteolin, galuteolin] | started to release from the enzyme when NA-MB was extracted using 50% organic solvent |
| O=c1c(O)c(-c2ccc(O)c(O)c2)oc2cc(O)cc(O)c12 [Quercetin] | specific inhibitors of NA |
| COc1ccc2c3c1O[C@H]1C[C@@H](O)C=C[C@@]31CCN(C)C2 [galantamine] | non-inhibitor of NA |
| COc1cc(-c2oc3cc(O)cc(O)c3c(=O)c2O)ccc1O [isorhamnetin] | started to release from the enzyme when NA-MB was extracted using 50% organic solvent |
| COc1cc2c(cc1O)CC[n+]1cc3c(OC)c(OC)ccc3cc1-2 [jatrorrhizine] | gradually washed out from M-S2 to M-S6 |
| O=c1cc(-c2ccc(O)c(O)c2)oc2cc(O)cc(O)c12 [luteolin] | specific inhibitors of NA |
